# Target: T1, Seed linoleate 13S-lipoxygenase-1 (Glycine max, UniProt P08170)
# T1 sequence (P08170 whole entry): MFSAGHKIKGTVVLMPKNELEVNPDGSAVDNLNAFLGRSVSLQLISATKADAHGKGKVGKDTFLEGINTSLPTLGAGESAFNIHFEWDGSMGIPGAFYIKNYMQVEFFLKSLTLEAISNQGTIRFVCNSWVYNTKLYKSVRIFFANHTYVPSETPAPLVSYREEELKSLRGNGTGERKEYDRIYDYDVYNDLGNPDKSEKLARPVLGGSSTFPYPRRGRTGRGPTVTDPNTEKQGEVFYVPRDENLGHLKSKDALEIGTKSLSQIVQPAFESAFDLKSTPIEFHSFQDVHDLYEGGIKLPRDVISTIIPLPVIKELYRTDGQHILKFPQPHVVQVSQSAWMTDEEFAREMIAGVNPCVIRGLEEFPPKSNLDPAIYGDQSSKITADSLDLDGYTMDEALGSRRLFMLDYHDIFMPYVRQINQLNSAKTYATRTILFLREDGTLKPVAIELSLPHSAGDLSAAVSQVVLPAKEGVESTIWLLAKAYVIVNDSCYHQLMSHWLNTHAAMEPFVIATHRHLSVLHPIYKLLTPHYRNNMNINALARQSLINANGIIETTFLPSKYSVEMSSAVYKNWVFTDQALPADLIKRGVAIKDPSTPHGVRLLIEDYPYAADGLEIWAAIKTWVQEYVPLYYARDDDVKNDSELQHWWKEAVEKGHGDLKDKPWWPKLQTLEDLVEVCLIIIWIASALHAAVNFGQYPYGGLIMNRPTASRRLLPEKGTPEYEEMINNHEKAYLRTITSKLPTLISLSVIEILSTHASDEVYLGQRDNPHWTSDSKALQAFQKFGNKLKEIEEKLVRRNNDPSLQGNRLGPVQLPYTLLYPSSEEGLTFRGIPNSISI
# Assay: Inhibition of soybean LOX-1 using linoleic acid as substrate
row,SMILES,IC50 [µM]
1,CN(C)c1ccc(/C=C/C=C/C(=O)c2ccc(OCCCOc3ccc(C(=O)/C=C/C=C/c4ccc(N(C)C)cc4)cc3)cc2)cc1,56
2,O=C(/C=C/c1cccc2ccccc12)c1ccc(OCCCOc2ccc(C(=O)/C=C/c3cccc4ccccc34)cc2)cc1,55
3,O=C(/C=C/c1ccc(Oc2ccccc2)cc1)c1ccc(OCCCOc2ccc(C(=O)/C=C/c3ccc(Oc4ccccc4)cc3)cc2)cc1,55

# Target: T2, Seed linoleate 13S-lipoxygenase-1 (Glycine max) (UniProt P08170)
# T2 sequence (whole entry): T1 sequence (P08170 whole entry)
# Assay: Inhibition of soybean LOX-1 using linoleic acid as substrate at 100 uM relative to control
row,inhibition [%],SMILES
1,95,O=C(/C=C/C=C/c1ccc([N+](=O)[O-])cc1)c1ccc(OCCCOc2ccc(C(=O)/C=C/C=C/c3ccc([N+](=O)[O-])cc3)cc2)cc1
2,32,O=C(/C=C/c1cccs1)c1ccc(OCCCOc2ccc(C(=O)/C=C/c3cccs3)cc2)cc1
3,57,O=C(/C=C/c1ccco1)c1ccc(OCCCOc2ccc(C(=O)/C=C/c3ccco3)cc2)cc1
4,41,O=C(/C=C/C=C/c1ccccc1)c1ccc(OCCCOc2ccc(C(=O)/C=C/C=C/c3ccccc3)cc2)cc1
5,26.5,CC(/C=C/C(=O)c1ccc(OCCCOc2ccc(C(=O)/C=C/C(C)=C/c3ccccc3)cc2)cc1)=C\c1ccccc1
6,7,CN(C)c1ccc(/C=C/C=C/C(=O)c2ccc(OCCCCCCOc3ccc(C(=O)/C=C/C=C/c4ccc(N(C)C)cc4)cc3)cc2)cc1
7,41,O=C(/C=C/c1ccc(OCc2ccc(Br)cc2)cc1)c1ccc(OCCCOc2ccc(C(=O)/C=C/c3ccc(OCc4ccc(Br)cc4)cc3)cc2)cc1
8,76,O=C(/C=C/c1ccccc1)c1ccc(OCCCOc2ccc(C(=O)/C=C/c3ccccc3)cc2)cc1
9,24.5,O=C(/C=C/C(Br)=C/c1ccccc1)c1ccc(OCCCOc2ccc(C(=O)/C=C/C(Br)=C/c3ccccc3)cc2)cc1
10,52,Cc1ccc(/C=C/C(=O)c2ccc(OCCCOc3ccc(C(=O)/C=C/c4ccc(C)o4)cc3)cc2)o1
11,65,CN(C)c1ccc(/C=C/C=C/C(=O)c2ccc(OCCCCCCCOc3ccc(C(=O)/C=C/C=C/c4ccc(N(C)C)cc4)cc3)cc2)cc1
12,98,O=C(/C=C/c1c[nH]c2ccccc12)c1ccc(OCCCOc2ccc(C(=O)/C=C/c3c[nH]c4ccccc34)cc2)cc1
13,27,CN(C)c1ccc(/C=C/C=C/C(=O)c2ccc(OCCCCOc3ccc(C(=O)/C=C/C=C/c4ccc(N(C)C)cc4)cc3)cc2)cc1
14,77,CN(C)c1ccc(/C=C/C=C/C(=O)c2ccc(OCCOc3ccc(C(=O)/C=C/C=C/c4ccc(N(C)C)cc4)cc3)cc2)cc1
15,23,CN(C)c1ccc(/C=C/C=C/C(=O)c2ccc(OCCCCCOc3ccc(C(=O)/C=C/C=C/c4ccc(N(C)C)cc4)cc3)cc2)cc1
16,12,CN(C)c1ccc(/C=C/C=C/C(=O)c2ccc(OCCCCCCCCOc3ccc(C(=O)/C=C/C=C/c4ccc(N(C)C)cc4)cc3)cc2)cc1
17,100,O=C(/C=C/c1ccc(Oc2ccccc2)cc1)c1ccc(OCCCOc2ccc(C(=O)/C=C/c3ccc(Oc4ccccc4)cc3)cc2)cc1

row,SMILES,inhibition [%]
1,CN(C)c1ccc(/C=C/C=C/C(=O)c2ccc(OCCCOc3ccc(C(=O)/C=C/C=C/c4ccc(N(C)C)cc4)cc3)cc2)cc1,93
2,O=C(/C=C/c1cccc2ccccc12)c1ccc(OCCCOc2ccc(C(=O)/C=C/c3cccc4ccccc34)cc2)cc1,100

# Target: COX-1/COX-2 (Homo sapiens) (UniProt P35354+P23219)
# Sequence (P23219 whole entry, looked up, one chain of several): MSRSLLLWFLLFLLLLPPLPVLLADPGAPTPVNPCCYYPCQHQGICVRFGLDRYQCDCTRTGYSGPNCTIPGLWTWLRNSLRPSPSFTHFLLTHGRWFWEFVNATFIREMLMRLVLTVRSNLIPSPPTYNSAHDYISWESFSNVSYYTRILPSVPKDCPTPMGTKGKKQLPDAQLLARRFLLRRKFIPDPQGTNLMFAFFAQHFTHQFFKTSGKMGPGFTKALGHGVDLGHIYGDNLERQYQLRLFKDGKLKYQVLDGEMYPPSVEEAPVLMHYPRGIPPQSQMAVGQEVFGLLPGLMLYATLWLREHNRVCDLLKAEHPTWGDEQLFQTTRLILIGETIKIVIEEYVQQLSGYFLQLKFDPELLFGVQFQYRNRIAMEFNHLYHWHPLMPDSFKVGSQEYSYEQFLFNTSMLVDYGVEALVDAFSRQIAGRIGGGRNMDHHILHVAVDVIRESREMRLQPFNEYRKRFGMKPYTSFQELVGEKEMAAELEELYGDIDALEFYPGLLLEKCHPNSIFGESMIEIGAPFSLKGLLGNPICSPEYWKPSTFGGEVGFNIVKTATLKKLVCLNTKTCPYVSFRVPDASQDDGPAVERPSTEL
# Assay: Selectivity index, ratio of IC50 for COX-1 (unknown origin) to IC50 for COX-2 (unknown origin)
# Format: protein assay
row,Ratio IC50,SMILES
1,76,COc1ccc(/C=C/C(=O)c2nn(-c3ccc(Br)cc3)c(C)c2C(=O)/C=C/c2ccc(OC)cc2)cc1

# Target: T3, Prostaglandin G/H synthase 2 (Homo sapiens, UniProt P35354)
# T3 sequence (P35354 whole entry): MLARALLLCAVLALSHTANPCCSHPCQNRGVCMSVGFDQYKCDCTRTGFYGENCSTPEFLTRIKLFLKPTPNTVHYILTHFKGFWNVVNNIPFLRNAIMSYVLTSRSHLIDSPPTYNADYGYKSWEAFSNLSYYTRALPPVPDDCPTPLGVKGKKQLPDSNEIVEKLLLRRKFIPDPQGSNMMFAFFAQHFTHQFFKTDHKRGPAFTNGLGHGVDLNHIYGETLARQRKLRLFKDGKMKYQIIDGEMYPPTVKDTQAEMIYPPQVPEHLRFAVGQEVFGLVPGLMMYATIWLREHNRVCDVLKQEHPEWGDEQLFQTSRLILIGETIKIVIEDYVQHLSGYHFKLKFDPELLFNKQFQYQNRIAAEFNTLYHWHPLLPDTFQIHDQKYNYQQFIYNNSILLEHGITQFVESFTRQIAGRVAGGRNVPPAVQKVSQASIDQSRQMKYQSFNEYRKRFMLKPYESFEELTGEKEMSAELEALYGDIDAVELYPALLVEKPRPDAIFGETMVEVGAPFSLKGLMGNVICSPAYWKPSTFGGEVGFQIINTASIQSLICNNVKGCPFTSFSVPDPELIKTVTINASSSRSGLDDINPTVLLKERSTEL
# Assay: Inhibition of COX-2 (unknown origin)
row,IC50 [µM],SMILES
1,0.7,COc1ccc(/C=C/C(=O)c2nn(-c3ccc(Br)cc3)c(C)c2C(=O)/C=C/c2ccc(OC)cc2)cc1

# From ChEMBL document CHEMBL5346938, “Bis-chalcones: A review of synthetic methodologies and anti-inflammatory effects” (Eur J Med Chem, 2023)
